Measurements as given in ChEMBL document CHEMBL4665778, “Discovery of Potent and Selective PI3Kγ Inhibitors” (J Med Chem, 2020).

Tests used:
[1] = biological target: PI3-kinase p110-alpha/p85-alpha (Homo sapiens, UniProt P42336)
Description: Inhibition of recombinant N-terminal FLAG-tagged full-length human PI3K p110alpha/human p85alpha co- expressed in Sf9 insect cells using phosphatidylinositol 4,5-bisphosphate as substrate preincubated for 60 mins followed by substrate addition and measured after 1 hr in presence of ATP by ADP-Glo lipid kinase assay

[2] = biological target: T1, Phosphatidylinositol 4,5-bisphosphate 3-kinase catalytic subunit gamma isoform (Homo sapiens, UniProt P48736)
Description: Inhibition of PI3Kgamma in human THP-1 cells assessed as reduction in Akt phosphorylation at S473 residue incubated for 60 mins by alphalisa assay

[3] = biological target: T1, Phosphatidylinositol 4,5-bisphosphate 3-kinase catalytic subunit gamma isoform; remark: listed apart in the source
Description: Inhibition of recombinant N-terminal His-tagged full-length human PI3K p120gamma expressed in Sf9 insect cells using phosphatidylinositol 4,5-bisphosphate as substrate preincubated for 60 mins followed by substrate addition and measured after 1 hr in presence of ATP by ADP-Glo lipid kinase assay

[4] = biological target: PI3-kinase p110-delta/p85-alpha (Homo sapiens, UniProt O00329)
Description: Inhibition of recombinant N-terminal GST-tagged full-length human PI3K p110delta/p85alpha co- expressed in Sf9 insect cells using phosphatidylinositol 4,5-bisphosphate as substrate preincubated for 60 mins followed by substrate addition and measured after 1 hr in presence of ATP by ADP-Glo lipid kinase assay

[5] = biological target: PI3K p110 beta/p85 alpha (Homo sapiens, UniProt P42338)
Description: Inhibition of recombinant N-terminal FLAG-tagged full-length human PI3K p110beta/human p85alpha co- expressed in Sf9 insect cells using phosphatidylinositol 4,5-bisphosphate as substrate preincubated for 60 mins followed by substrate addition and measured after 1 hr in presence of ATP by ADP-Glo lipid kinase assay

[6] = species: Homo sapiens; experiment: Selectivity index, ratio of IC50 for N-terminal FLAG-tagged full-length human PI3K p110beta/human p85alpha to IC50 for recombinant N-terminal His-tagged full-length human PI3K p120gamma
[7] = Volume of distribution at steady state in Sprague-Dawley rat at 0.25 mg/kg, iv by LC-MS/MS analysis; type: ADME, organism-based; conditions: in vivo, read-out: Vdss
[8] = Intrinsic clearance rat hepatocytes assessed per 10^6 cells by LC-MS/MS analysis; type: ADME, tissue-based, Hepatocyte; conditions: read-out: CLH
[9] = Clearance in Sprague-Dawley rat at 0.25 mg/kg, iv by LC-MS/MS analysis; type: ADME, organism-based; conditions: in vivo
[10] = Intrinsic clearance in human hepatocytes assessed per 10^6 cells at 0.5 uM by LC-MS/MS analysis; type: ADME, cell-based, Hepatocyte; conditions: read-out: CLH
[11] = biological target: CYP3A4 (Homo sapiens, UniProt P08684); experiment: in vitro; conditions: liver microsomes, probe midazolam

T1 sequence (P48736 whole entry, canonical isoform): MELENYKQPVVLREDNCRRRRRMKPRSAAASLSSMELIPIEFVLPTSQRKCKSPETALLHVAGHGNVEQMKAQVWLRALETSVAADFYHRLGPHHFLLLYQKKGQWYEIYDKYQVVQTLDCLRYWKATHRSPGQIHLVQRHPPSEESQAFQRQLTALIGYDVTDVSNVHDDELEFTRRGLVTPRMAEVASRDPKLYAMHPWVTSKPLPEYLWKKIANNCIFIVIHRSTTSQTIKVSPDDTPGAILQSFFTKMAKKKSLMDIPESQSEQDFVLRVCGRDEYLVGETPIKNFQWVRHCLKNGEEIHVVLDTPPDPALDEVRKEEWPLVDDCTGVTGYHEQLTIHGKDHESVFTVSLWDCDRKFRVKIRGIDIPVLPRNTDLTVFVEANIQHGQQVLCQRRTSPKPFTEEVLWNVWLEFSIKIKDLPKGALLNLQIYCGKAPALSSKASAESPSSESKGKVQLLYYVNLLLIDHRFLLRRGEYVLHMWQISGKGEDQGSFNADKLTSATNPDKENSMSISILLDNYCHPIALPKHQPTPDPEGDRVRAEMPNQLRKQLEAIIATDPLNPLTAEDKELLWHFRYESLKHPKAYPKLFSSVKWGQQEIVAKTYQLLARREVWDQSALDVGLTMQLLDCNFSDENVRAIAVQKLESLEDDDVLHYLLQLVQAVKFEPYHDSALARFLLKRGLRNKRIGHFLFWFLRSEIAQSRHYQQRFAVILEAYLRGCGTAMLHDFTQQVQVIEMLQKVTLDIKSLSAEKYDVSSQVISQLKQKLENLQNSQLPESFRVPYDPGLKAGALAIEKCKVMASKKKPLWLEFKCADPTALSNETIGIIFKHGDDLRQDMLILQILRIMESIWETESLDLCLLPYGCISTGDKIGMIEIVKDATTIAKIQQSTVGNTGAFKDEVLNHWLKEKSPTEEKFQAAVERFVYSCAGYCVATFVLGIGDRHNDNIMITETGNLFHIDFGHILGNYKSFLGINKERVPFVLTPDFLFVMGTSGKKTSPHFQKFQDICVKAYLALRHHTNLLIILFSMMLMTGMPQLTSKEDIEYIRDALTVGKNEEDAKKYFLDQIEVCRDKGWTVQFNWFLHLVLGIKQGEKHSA
PI3-kinase p110-alpha/p85-alpha, sequence (P27986 whole entry, canonical isoform): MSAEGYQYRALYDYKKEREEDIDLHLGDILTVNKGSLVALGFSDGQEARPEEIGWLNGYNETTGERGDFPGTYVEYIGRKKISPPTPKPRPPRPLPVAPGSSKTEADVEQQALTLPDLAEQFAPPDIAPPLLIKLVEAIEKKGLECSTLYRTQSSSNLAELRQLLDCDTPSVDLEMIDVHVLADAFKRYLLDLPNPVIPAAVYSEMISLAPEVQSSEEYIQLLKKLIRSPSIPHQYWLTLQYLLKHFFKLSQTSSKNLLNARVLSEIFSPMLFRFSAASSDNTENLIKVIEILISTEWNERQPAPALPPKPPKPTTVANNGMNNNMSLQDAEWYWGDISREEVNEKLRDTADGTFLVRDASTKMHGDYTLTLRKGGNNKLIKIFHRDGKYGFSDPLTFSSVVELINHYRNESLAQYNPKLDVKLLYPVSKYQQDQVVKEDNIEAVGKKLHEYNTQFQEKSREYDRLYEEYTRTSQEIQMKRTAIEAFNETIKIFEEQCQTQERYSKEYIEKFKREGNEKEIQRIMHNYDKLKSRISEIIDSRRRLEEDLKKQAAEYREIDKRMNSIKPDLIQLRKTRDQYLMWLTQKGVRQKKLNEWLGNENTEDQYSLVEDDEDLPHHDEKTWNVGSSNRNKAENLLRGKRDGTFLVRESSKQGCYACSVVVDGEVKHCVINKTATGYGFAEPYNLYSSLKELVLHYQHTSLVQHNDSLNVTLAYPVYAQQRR
PI3-kinase p110-alpha/p85-alpha, sequence (P42336 whole entry, canonical isoform): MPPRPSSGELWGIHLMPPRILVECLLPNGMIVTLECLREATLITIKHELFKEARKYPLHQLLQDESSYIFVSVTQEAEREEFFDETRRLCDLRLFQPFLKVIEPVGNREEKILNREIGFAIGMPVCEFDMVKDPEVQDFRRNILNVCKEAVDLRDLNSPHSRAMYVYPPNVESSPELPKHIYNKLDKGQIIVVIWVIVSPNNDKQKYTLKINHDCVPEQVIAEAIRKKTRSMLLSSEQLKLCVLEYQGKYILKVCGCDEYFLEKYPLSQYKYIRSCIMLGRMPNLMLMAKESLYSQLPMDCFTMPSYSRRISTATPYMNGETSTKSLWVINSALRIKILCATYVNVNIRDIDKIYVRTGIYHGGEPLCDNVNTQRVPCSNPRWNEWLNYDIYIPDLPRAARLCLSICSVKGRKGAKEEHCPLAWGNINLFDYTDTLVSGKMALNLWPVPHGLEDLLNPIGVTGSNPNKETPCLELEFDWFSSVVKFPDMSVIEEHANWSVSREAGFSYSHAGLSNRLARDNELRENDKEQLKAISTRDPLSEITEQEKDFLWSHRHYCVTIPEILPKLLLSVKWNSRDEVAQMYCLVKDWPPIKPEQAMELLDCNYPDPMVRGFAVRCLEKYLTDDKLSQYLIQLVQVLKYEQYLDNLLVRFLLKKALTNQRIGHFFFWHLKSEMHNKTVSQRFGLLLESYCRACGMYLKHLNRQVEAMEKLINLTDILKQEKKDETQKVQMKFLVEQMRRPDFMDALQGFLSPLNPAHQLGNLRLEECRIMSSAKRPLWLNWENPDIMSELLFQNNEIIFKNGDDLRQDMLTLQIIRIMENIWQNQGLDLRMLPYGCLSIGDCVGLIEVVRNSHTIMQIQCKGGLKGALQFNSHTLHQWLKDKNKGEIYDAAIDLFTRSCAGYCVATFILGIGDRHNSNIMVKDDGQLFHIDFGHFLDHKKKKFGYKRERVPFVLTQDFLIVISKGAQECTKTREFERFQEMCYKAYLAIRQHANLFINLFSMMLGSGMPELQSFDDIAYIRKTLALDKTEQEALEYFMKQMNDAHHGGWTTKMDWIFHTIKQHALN
PI3K p110 beta/p85 alpha, sequence (P27986 whole entry): as the sequence (P27986 whole entry, canonical isoform) above
PI3K p110 beta/p85 alpha, sequence (P42338 whole entry): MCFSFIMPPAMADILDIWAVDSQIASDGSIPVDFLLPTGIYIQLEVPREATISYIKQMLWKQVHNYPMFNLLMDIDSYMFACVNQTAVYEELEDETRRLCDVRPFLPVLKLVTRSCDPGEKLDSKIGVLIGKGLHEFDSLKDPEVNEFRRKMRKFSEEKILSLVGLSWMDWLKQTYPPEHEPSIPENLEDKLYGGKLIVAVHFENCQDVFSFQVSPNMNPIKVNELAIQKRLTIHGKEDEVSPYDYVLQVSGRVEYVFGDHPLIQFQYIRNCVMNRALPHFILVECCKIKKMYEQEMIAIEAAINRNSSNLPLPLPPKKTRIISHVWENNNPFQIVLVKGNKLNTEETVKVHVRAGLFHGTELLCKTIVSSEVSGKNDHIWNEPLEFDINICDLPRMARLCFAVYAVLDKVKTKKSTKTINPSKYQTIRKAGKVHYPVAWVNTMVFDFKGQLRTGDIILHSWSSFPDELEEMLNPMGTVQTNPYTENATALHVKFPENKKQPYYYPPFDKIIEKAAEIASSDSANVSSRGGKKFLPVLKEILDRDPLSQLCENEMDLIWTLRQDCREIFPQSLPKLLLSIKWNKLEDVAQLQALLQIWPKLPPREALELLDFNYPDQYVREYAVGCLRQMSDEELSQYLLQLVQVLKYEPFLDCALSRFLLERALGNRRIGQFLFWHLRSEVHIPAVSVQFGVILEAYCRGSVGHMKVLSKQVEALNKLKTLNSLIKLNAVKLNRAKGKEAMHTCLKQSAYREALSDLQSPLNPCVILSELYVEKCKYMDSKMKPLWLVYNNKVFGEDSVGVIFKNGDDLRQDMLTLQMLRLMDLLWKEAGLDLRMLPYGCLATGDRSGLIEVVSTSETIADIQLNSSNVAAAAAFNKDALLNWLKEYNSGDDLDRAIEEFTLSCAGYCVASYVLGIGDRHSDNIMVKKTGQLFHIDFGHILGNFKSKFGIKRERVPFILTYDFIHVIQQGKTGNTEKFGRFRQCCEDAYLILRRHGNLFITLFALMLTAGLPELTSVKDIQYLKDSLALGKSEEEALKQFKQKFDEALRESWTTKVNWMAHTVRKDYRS
PI3-kinase p110-delta/p85-alpha, sequence (P27986 whole entry): as the sequence (P27986 whole entry, canonical isoform) above
PI3-kinase p110-delta/p85-alpha, sequence (O00329 whole entry): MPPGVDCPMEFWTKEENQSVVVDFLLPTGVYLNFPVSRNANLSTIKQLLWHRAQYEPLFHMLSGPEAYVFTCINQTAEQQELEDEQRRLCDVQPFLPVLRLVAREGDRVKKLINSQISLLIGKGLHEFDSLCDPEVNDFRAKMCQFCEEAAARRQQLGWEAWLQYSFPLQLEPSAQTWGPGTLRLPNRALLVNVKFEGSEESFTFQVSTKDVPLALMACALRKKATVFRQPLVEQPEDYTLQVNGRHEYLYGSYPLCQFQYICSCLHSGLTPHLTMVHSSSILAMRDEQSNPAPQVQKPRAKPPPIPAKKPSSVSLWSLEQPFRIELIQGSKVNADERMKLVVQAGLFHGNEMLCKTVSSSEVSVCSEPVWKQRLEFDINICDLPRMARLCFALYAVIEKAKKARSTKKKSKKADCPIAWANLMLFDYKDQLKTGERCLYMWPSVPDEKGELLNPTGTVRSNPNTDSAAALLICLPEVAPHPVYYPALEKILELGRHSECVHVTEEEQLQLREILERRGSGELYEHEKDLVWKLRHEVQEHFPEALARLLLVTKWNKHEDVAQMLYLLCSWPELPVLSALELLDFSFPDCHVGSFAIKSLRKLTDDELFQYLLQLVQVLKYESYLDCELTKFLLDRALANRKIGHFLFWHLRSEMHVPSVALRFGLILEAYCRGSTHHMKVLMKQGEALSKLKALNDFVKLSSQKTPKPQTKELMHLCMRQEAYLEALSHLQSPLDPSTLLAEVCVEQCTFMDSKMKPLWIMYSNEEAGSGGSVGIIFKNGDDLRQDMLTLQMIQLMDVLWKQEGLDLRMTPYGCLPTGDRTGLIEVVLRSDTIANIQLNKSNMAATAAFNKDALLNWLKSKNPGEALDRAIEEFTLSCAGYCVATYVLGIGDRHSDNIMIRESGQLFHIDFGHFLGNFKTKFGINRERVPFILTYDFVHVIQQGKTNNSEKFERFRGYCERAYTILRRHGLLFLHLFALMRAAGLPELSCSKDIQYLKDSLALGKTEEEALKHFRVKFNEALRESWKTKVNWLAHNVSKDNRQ

## Cc1cc(-c2ccn3ncc(-c4cnn(C)c4)c3n2)cc2c1C(=O)N([C@@H](C)C1CC1)C2
[1]
  IC50: 4.14 µM
[2]
  IC50: 0.3 µM
[3]
  IC50: 0.0091 µM
[4]
  IC50: 3.44 µM

## Cc1cc(-c2ccc3nc(NS(C)(=O)=O)cn3n2)cc2c1C(=O)N([C@@H](C)C1CC1)C2
[1]
  IC50: > 10 µM
[2]
  IC50: > 30 µM
[3]
  IC50: 5.3 µM
[4]
  IC50: > 10 µM

## Cc1cc(-c2c(N)nn3ccc(-c4cc(C)c5c(c4)CN([C@@H](C)C4CC4)C5=O)nc23)ccc1C(=O)O
[1]
  IC50: 0.096 µM
[2]
  IC50: 0.21 µM
[3]
  IC50: 0.0022 µM
[4]
  IC50: 0.21 µM

## Cc1cc(-c2ccc3nc(NC(=O)N4CCC[C@H]4C(N)=O)cn3n2)cc2c1C(=O)N([C@@H](C)C1CC1)C2
[1]
  IC50: 2.47 µM
[2]
  IC50: 0.46 µM
[3]
  IC50: 0.0029 µM
[4]
  IC50: 8.21 µM

## Cc1cc(-c2ccc3nc(N)cn3n2)cc2c1C(=O)N([C@@H](C)C1CC1)C2 (racemic)
[1]
  IC50: > 10 µM
[2]
  IC50: 1.5 µM
[3]
  IC50: 0.425 µM
[5]
  IC50: > 10 µM
[4]
  IC50: > 10 µM
[6]
  Ratio IC50: > 24

## CC(=O)Nc1nn2ccc(-c3cc(C)c4c(c3)CN([C@@H](C)C3CC3)C4=O)nc2c1-c1cnn(C)c1
[1]
  IC50: > 10 µM
[2]
  IC50: 1.5 µM
[3]
  IC50: 0.429 µM
[4]
  IC50: > 10 µM

## C[C@@H](C1CC1)N1Cc2cc(-c3ccn4nc(N)c(-c5cnn(C)c5)c4n3)cc(C(F)(F)F)c2C1=O
[1]
  IC50: 1.94 µM
[2]
  IC50: 0.064 µM
[7]
  Vd: 1.2 L/kg
[3]
  IC50: 0.0019 µM
[8]
  hepatocyte CLint: 7.4 µL/min/1e6 cells
[5]
  IC50: > 15 µM
[4]
  IC50: 1.31 µM
[9]
  clearance: 13 mL/min/kg
[10]
  hepatocyte CLint at 0.5 µM: 3.3 µL/min/1e6 cells

## C[C@@H](C1CC1)N1Cc2cc(-c3ccn4nc(N)c(-c5ncccn5)c4n3)cc(C(F)(F)F)c2C1=O
[1]
  IC50: > 10 µM
[2]
  IC50: 0.8 µM
[3]
  IC50: 0.053 µM
[4]
  IC50: > 10 µM

## CC(=O)Nc1cc2nc(-c3cc4c(c(NS(C)(=O)=O)c3)C(=O)N([C@@H](C)C3CC3)C4)ccn2n1
[1]
  IC50: 8.97 µM
[2]
  IC50: 0.16 µM
[3]
  IC50: 0.0013 µM
[4]
  IC50: 6.14 µM

## Cc1cc(-c2ccn3nc(N)cc3n2)cc2c1C(=O)N([C@@H](C)C1CC1)C2
[1]
  IC50: > 10 µM
[2]
  IC50: 4.2 µM
[3]
  IC50: 0.06 µM
[4]
  IC50: > 10 µM

## Cc1ncc(-c2c(N)nn3ccc(-c4cc(C)c5c(c4)CN([C@@H](C)C4CC4)C5=O)nc23)o1
[1]
  IC50: 2.26 µM
[2]
  IC50: 0.23 µM
[3]
  IC50: 0.0059 µM
[4]
  IC50: 3.25 µM

## Cc1cc(-c2ccc3ncc(-c4cnn(C)c4)n3n2)cc2c1C(=O)N([C@@H](C)C1CC1)C2
[1]
  IC50: > 10 µM
[2]
  IC50: 0.44 µM
[3]
  IC50: 0.015 µM
[4]
  IC50: 2.38 µM

## Cc1cc(-c2ccc3nc(N)nn3c2)cc2c1C(=O)N([C@@H](C)C1CC1)C2 (racemic)
[1]
  IC50: > 10 µM
[2]
  IC50: 15 µM
[3]
  IC50: 0.291 µM
[5]
  IC50: > 10 µM
[4]
  IC50: > 10 µM
[6]
  Ratio IC50: > 34

## Cc1cc(-c2ccc3nc(NC(=O)c4ccccc4)cn3n2)cc2c1C(=O)N([C@@H](C)C1CC1)C2
[1]
  IC50: > 10 µM
[2]
  IC50: 12 µM
[3]
  IC50: 0.093 µM
[4]
  IC50: > 10 µM

## CCC(=O)Nc1cn2nc(-c3cc(C)c4c(c3)CN([C@@H](C)C3CC3)C4=O)ccc2n1
[1]
  IC50: > 10 µM
[2]
  IC50: 0.83 µM
[3]
  IC50: 0.0073 µM
[4]
  IC50: > 10 µM

## Cc1cc(-c2ccn3nc(N)c(-c4nc[nH]n4)c3n2)cc2c1C(=O)N([C@@H](C)C1CC1)C2
[1]
  IC50: 6.29 µM
[2]
  IC50: 0.63 µM
[3]
  IC50: 0.031 µM
[4]
  IC50: 6.05 µM

## CC(=O)Nc1cn2nc(-c3cc(C)c4c(c3)CN([C@@H](C)C3CC3)C4=O)ccc2n1
[1]
  IC50: > 10 µM
[2]
  IC50: 0.45 µM
[3]
  IC50: 0.0055 µM
[5]
  IC50: > 10 µM
[4]
  IC50: > 10 µM
[6]
  Ratio IC50: > 1820

## CNS(=O)(=O)c1cc(-c2ccn3nc(NC(C)=O)cc3n2)cc2c1C(=O)N([C@@H](C)C1CC1)C2
[1]
  IC50: 9.85 µM
[2]
  IC50: 0.24 µM
[3]
  IC50: 0.0027 µM
[4]
  IC50: 4.55 µM

## CC(=O)Nc1nc2ccc(-c3cc(C)c4c(c3)CN([C@@H](C)C3CC3)C4=O)cn2n1 (racemic)
[1]
  IC50: > 10 µM
[2]
  IC50: 3 µM
[3]
  IC50: 0.076 µM
[5]
  IC50: > 10 µM
[4]
  IC50: > 10 µM
[6]
  Ratio IC50: > 131

## Cc1cc(-c2ccn3nc(N)nc3c2)cc2c1C(=O)N([C@@H](C)C1CC1)C2
[1]
  IC50: > 10 µM
[2]
  IC50: 3.1 µM
[3]
  IC50: 0.05 µM
[5]
  IC50: > 10 µM
[4]
  IC50: > 10 µM
[6]
  Ratio IC50: > 200

## CC(=O)Nc1cc2nc(-c3cc4c(c(C(F)(F)F)c3)C(=O)N([C@@H](C)C3CC3)C4)ccn2n1
[1]
  IC50: 8.34 µM
[2]
  IC50: 0.15 µM
[3]
  IC50: 0.0022 µM
[8]
  hepatocyte CLint: < 1.2 µL/min/1e6 cells
[4]
  IC50: 2.61 µM
[10]
  hepatocyte CLint at 0.5 µM: 2.4 µL/min/1e6 cells

## Cc1nn(C)cc1-c1c(N)nn2ccc(-c3cc4c(c(C(F)(F)F)c3)C(=O)N([C@@H](C)C3CC3)C4)nc12
[1]
  IC50: > 10 µM
[2]
  IC50: 0.47 µM
[3]
  IC50: 0.008 µM
[4]
  IC50: 4.55 µM

## Cc1c(-c2c(N)nn3ccc(-c4cc5c(c(C(F)(F)F)c4)C(=O)N([C@@H](C)C4CC4)C5)nc23)cnn1C
[1]
  IC50: 1.51 µM
[2]
  IC50: 0.44 µM
[3]
  IC50: 0.0066 µM
[4]
  IC50: 2.24 µM

## COCC(=O)Nc1cn2nc(-c3cc(C)c4c(c3)CN([C@@H](C)C3CC3)C4=O)ccc2n1
[1]
  IC50: > 10 µM
[2]
  IC50: 0.69 µM
[3]
  IC50: 0.014 µM
[4]
  IC50: > 10 µM

## Cc1cc(-c2ccc3[nH]c(N)nc3c2)cc2c1C(=O)N([C@@H](C)C1CC1)C2 (racemic)
[1]
  IC50: > 10 µM
[3]
  IC50: > 10 µM
[5]
  IC50: > 10 µM
[4]
  IC50: > 10 µM

## CC(=O)Nc1cc2nc(-c3cc(C)c4c(c3)CN([C@@H](C)C3CC3)C4=O)ccn2n1
[1]
  IC50: > 10 µM
[2]
  IC50: 0.24 µM
[3]
  IC50: 0.0044 µM
[4]
  IC50: > 10 µM

## Cc1cc(-c2ccc3nc(NC(=O)C(C)C)cn3n2)cc2c1C(=O)N([C@@H](C)C1CC1)C2
[1]
  IC50: > 10 µM
[2]
  IC50: 9.4 µM
[3]
  IC50: 0.07 µM
[4]
  IC50: > 10 µM

## Cc1cc(-c2ccc3nc(N)c(-c4cnn(C)c4)n3n2)cc2c1C(=O)N([C@@H](C)C1CC1)C2
[1]
  IC50: > 10 µM
[2]
  IC50: 0.49 µM
[3]
  IC50: 0.017 µM
[4]
  IC50: > 10 µM

## CC(=O)Nc1nc2cc(-c3cc(C)c4c(c3)CN([C@@H](C)C3CC3)C4=O)ccc2[nH]1 (racemic)
[1]
  IC50: > 10 µM
[2]
  IC50: 1 µM
[3]
  IC50: 0.482 µM
[5]
  IC50: > 10 µM
[4]
  IC50: > 10 µM
[6]
  Ratio IC50: > 21

## Cc1cc(-c2ccn3nc(N)c(-c4ccn[nH]4)c3n2)cc2c1C(=O)N([C@@H](C)C1CC1)C2
[1]
  IC50: 1.98 µM
[2]
  IC50: 0.62 µM
[3]
  IC50: 0.044 µM
[4]
  IC50: 2.69 µM

## Cc1cc(-c2ccn3nc(N)c(-c4ccccn4)c3n2)cc2c1C(=O)N([C@@H](C)C1CC1)C2
[1]
  IC50: > 10 µM
[2]
  IC50: 2.3 µM
[3]
  IC50: 0.064 µM
[4]
  IC50: > 10 µM

## CC(C)c1cc(-c2cnn3ccc(-c4cc5c(c(C(F)(F)F)c4)C(=O)N([C@@H](C)C4CC4)C5)nc23)ccc1C(=O)O
[1]
  IC50: 0.194 µM
[2]
  IC50: 0.074 µM
[7]
  Vd: 25 L/kg
[3]
  IC50: 0.0021 µM
[11]
  inhibition at 10 µM: 13%
[8]
  hepatocyte CLint: 1.7 µL/min/1e6 cells
[5]
  IC50: 11.6 µM
[4]
  IC50: 0.459 µM
[9]
  clearance: 86.7 mL/min/kg
[10]
  hepatocyte CLint at 0.5 µM: < 1.2 µL/min/1e6 cells
[6]
  Ratio IC50: 5520

## Cc1cc(-c2ccn3nc(N)c(-c4ccc(CC(=O)O)cc4)c3n2)cc2c1C(=O)N([C@@H](C)C1CC1)C2
[1]
  IC50: 5.45 µM
[2]
  IC50: 0.87 µM
[3]
  IC50: 0.0021 µM
[4]
  IC50: 4.66 µM

## CC(C)c1cc(-c2c(N)nn3ccc(-c4cc5c(c(C(F)(F)F)c4)C(=O)N([C@@H](C)C4CC4)C5)nc23)ccc1C(=O)O
[1]
  IC50: 0.0824 µM
[2]
  IC50: 0.076 µM
[3]
  IC50: 0.001 µM
[5]
  IC50: 10.1 µM
[4]
  IC50: 0.125 µM
[6]
  Ratio IC50: 10100

## Cc1cc(-c2ccn3nc(N)c(-c4ccncn4)c3n2)cc2c1C(=O)N([C@@H](C)C1CC1)C2
[1]
  IC50: 2.73 µM
[2]
  IC50: 0.55 µM
[3]
  IC50: 0.0075 µM
[4]
  IC50: 2.2 µM

## Cc1cc(-c2ccn3nc(N)c(-c4cnn(CCO)c4)c3n2)cc2c1C(=O)N([C@@H](C)C1CC1)C2
[1]
  IC50: 1.16 µM
[2]
  IC50: 0.4 µM
[3]
  IC50: 0.0064 µM
[4]
  IC50: 1.16 µM
